From patent US8697692B2, “Pyrrolo [3,2-c] pyridine-4-one 2-indolinone protein kinase inhibitors” (Shanghai Hengrui Pharmaceutical Co., Ltd., priority 2006, dated 2014) come the findings set out here.

The test system of this assay is A431 cell. The assay can be described thus: Cell Proliferation Inhibition EGFR Assay (SRB method). Format: cell-based, homo sapient. The settings on record: Homo sapiens, A-431; A431 cells, 72 hours exposure, Sulforhodamine B; read-out: IC50 (A431). In a few lines:
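A431 cells grown to ~85% confluence, then exposed 72 hours at 37° C to 6 to 7 serial concentrations of compound in DMEM/F12 + 10% FBS, final DMSO ≤0.5%. Growth measured by TCA fixation and sulforhodamine B staining; IC50 calculated from inhibition rates.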

As a reminder, the IC50 is the concentration that gives 50% inhibition. In the case of `CCN(CC)CCN1CCc2[nH]c(/C=C3\C(=O)Nc4ncnc(Nc5ccc(F)c(Cl)c5)c43)c(C)c2C1=O` [Example 12, 4-(3-Chlor O-4-fluoro-phenylamino)-5-[5-(2-diethylamino-ethyl)-3-methyl-4-oxo-4,5,6,7-tetrahydro-1H-pyrrolo[3,2-c]pyridine-2-ylmethylene]-5,7-dihydro-pyrrolo[2,3-d]pyrimidin-6-one], the 50% inhibitory concentration (IC50) was 67 nM. Turning to `Cc1c(/C=C2\C(=O)Nc3ccc(Cl)cc32)[nH]c2c1C(=O)N(CCN1CCOCC1)CC2` [Example 16, 2-(5-Chloro-2-oxo-1,2-dihydro-indol-3-ylidenemethyl)-3-methyl-5-(2-morpholin-4-yl-ethyl)-1,5,6,7-tetrahydro-pyrrolo[3,2-c]pyridin-4-one], the half-inhibitory concentration (IC50) amounted to 10200 nM. For `Cc1c(/C=C2\C(=O)Nc3ncnc(Nc4ccc(F)c(Cl)c4)c32)[nH]c2c1C(=O)N(CCN1CCOCC1)CC2` [Example 24, 4-(3-Chloro-4-fluoro-phenylamino)-5-[3-methyl-5-(2-morpholin-4-yl-ethyl)-4-oxo-4,5,6,7-tetrahydro-1H-pyrrolo[3,2-c]pyridine-2-ylmethylenene]-5,7-dihydro-pyrrolo[2,3-d]pyrimidin-6-one], the half-inhibitory concentration (IC50) came out at 330 nM. For `CCN(CC)CCN1CCc2[nH]c(/C=C3\C(=O)Nc4cccc(Br)c43)c(C)c2C1=O` [Example 30, 2-(4-Bromo-2-oxo-1,2-dihydro-indol-3-ylidenemethyl)-5-(2-diethylamino-ethyl)-3-methyl-1,5,6,7-tetrahydro-pyrrolo[3,2-c]pyridin-4-one], the half-maximal inhibitory concentration (IC50) was determined as 330 nM. Regarding `CCN(CC)CCN1CCc2[nH]c(/C=C3\C(=O)Nc4cccc(C5CCNCC5)c43)c(C)c2C1=O` [Example 31, 5-(2-Diethylamino-ethyl)-3-methyl-2-(2-oxo-4-piperidin-4-yl-1,2-dihydro-indol-3-ylidenemethyl)-1,5,6,7-tetrahydro-pyrrolo[3,2-c]pyridin-4-one], the 50% inhibitory concentration (IC50) is 350 nM. For `CCN(CC)CCN1CCc2[nH]c(/C=C3\C(=O)Nc4cccc(-c5ccc(Cl)cc5F)c43)c(C)c2C1=O` [Example 34, 2-[4-(4-Chloro-2-fluoro-phenyl)-2-oxo-1,2-dihydro-indol-3-ylidenemethyl]-5-(2-diethylamino-ethyl)-3-methyl-1,5,6,7-tetrahydro-pyrrolo[3,2-c]pyridin-4-one], the 50% inhibitory concentration (IC50) came out at 3230 nM. `CCN(CC)CCN1CCc2[nH]c(/C=C3\C(=O)Nc4ccc(OC)cc43)c(C)c2C1=O` [Example 35, 5-(2-Diethylamino-ethyl)-2-(5-methoxy-2-oxo-1,2-dihydro-indol-3-ylidenemethyl)-3-methyl-1,5,6,7-tetrahydro-pyrrolo[3,2-c]pyridin-4-one]: the IC50 stood at 4350 nM. Regarding `CCN(CC)CCN1CCc2[nH]c(/C=C3\C(=O)Nc4cccc(-c5cccc(Cl)c5F)c43)c(C)c2C1=O` [Example 36, 2-[4-(3-Chloro-2-fluoro-phenyl)-2-oxo-1,2-dihydro-indol-3-ylidenemethyl]-5-(2-diethylamino-ethyl)-3-methyl-1,5,6,7-tetrahydro-pyrrolo[3,2-c]pyridin-4-one], the IC50 was determined as 7320 nM. As for `CCN(CC)CCN1CCc2[nH]c(/C=C3\C(=O)Nc4cccc(CCO)c43)c(C)c2C1=O` [Example 37, 5-(2-Diethylamino-ethyl)-2-[4-(2-hydroxy-ethyl)-2-oxo-1,2-dihydro-indol-3-ylidenemethyl]-3-methyl-1,5,6,7-tetrahydro-pyrrolo[3,2-c]pyridin-4-one], the IC50 came to 3850 nM. In the case of `CCN(CC)CCN1CCc2[nH]c(/C=C3\C(=O)Nc4cccc(-c5cccc(F)c5F)c43)c(C)c2C1=O` [Example 39, 5-(2-diethylamino-ethyl)-2-[4-(2,3-difluoro-phenyl)-2-oxo-1,2-dihydro-indol-3-ylidenemethyl]-3-methyl-1,5,6,7-tetrahydro-pyrrolo[3,2-c]pyridin-4-one], the IC50 came to 380 nM. For the compound `Cc1c(/C=C2\C(=O)Nc3cccc(CCO)c32)[nH]c2c1C(=O)N(CCN1CCOCC1)CC2` [Example 42, 2-[4-(2-Hydroxy-ethyl)-2-oxo-1,2-dihydro-indol-3-ylidenemethyl]-3-methyl-5-(2-morpholin-4-yl-ethyl)-1,5,6,7-tetrahydro-pyrrolo[3,2-c]pyridin-4-one], the half-maximal inhibitory concentration (IC50) was determined as 16500 nM.

As for `Cc1c(/C=C2\C(=O)Nc3ncc(Br)cc32)[nH]c2c1C(=O)N(CCN1CCOCC1)CC2` [Example 50, 2-(5-Bromo-2-oxo-1,2-dihydro-pyrrolo[2,3-b]pyridin-3-ylidenemethyl)-3-methyl-5-(2-morpholin-4-yl-ethyl)-1,5,6,7-tetrahydro-pyrrolo[3,2-c]pyridin-4-one], the half-inhibitory concentration (IC50) was found to be 15900 nM. Turning to `Cc1c(/C=C2\C(=O)Nc3cccc(C4CCNCC4)c32)[nH]c2c1C(=O)N(CCN1CCOCC1)CC2` [Example 52, 3-Methyl-5-(2-morpholin-4-yl-ethyl)-2-(2-oxo-4-piperidin-4-yl-1,2-dihydro-indol-3-ylidenemethyl)-1,5,6,7-tetrahydro-pyrrolo[3,2-c]pyridin-4-one], the concentration for half-maximal inhibition (IC50) was 1900 nM. Regarding `Cc1c(/C=C2\C(=O)Nc3cccc(-c4cccc(F)c4F)c32)[nH]c2c1C(=O)N(CCN1CCCC1)CC2` [Example 59, 2-[4-(2,3-Difluoro-phenyl)-2-oxo-1,2-dihydro-indol-3-ylidenemethyl]-3-methyl-5-(2-pyrrolidin-1-yl-ethyl)-1,5,6,7-tetrahydro-pyrrolo[3,2-c]pyridin-4-one], the IC50 amounted to 2190 nM.
